Here are results for seven cell lines from the supplement of paper PMC10307832.

Common to all, as to experiment: relative viability (nuclei count vs DMSO), 5 days (fraction); higher = more cells survive
Compound in assay [1]: CC1=C(N=C(N=C1N)[C@H](CC(=O)N)NC[C@@H](C(=O)N)N)C(=O)N[C@@H]([C@H](C2=CN=CN2)OC3C(C(C(C(O3)CO)O)O)OC4C(C(C(C(O4)CO)O)OC(=O)N)O)C(=O)N[C@H](C)[C@H]([C@H](C)C(=O)N[C@@H]([C@@H](C)O)C(=O)NCCC5=NC(=CS5)C6=NC(=CS6)C(=O)NCCC[S+](C)C)O [Bleomycin] + Nc1nc2[nH]cc(CCc3ccc(C(=O)N[C@@H](CCC(=O)O)C(=O)O)cc3)c2c(=O)[nH]1 [Pemetrexed] (partner 0.2 µM)
The note with it: main component drawn. The essentials: (§1)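 Dosing by pin tool came one day after lung cancer cell lines were seeded in 1536-well plates, using either one drug or a fixed anchor-drug dose plus five library-drug doses (not always all listed) in √10 steps. After 5 days, nuclei were counted on 4× images. Relative viability is treated-well nuclei count divided by vehicle-well nuclei count, and values are medians of duplicate plates.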

Compound in assay [2]: CC1=C(N=C(N=C1N)[C@H](CC(=O)N)NC[C@@H](C(=O)N)N)C(=O)N[C@@H]([C@H](C2=CN=CN2)OC3C(C(C(C(O3)CO)O)O)OC4C(C(C(C(O4)CO)O)OC(=O)N)O)C(=O)N[C@H](C)[C@H]([C@H](C)C(=O)N[C@@H]([C@@H](C)O)C(=O)NCCC5=NC(=CS5)C6=NC(=CS6)C(=O)NCCC[S+](C)C)O [Bleomycin] + CCNC(=O)c1noc(-c2cc(C(C)C)c(O)cc2O)c1-c1ccc(CN2CCOCC2)cc1 [Luminespib] (partner 0.01 µM)
The note with it: main component drawn. The essentials: as §1

Compound in assay [3]: COc1cc([C@@H]2c3cc4c(cc3[C@@H](O[C@@H]3O[C@@H]5CO[C@@H](C)O[C@H]5[C@H](O)[C@H]3O)[C@H]3COC(=O)[C@H]23)OCO4)cc(OC)c1O [Etoposide] + COc1cccc2cc(-c3nc([C@H]4CC[C@H](C(=O)O)CC4)n4ncnc(N)c34)[nH]c12 [OSI-027] (partner 0.5 µM)
In short, it runs like this: as §1

Compound in assay [4]: CC1=C(N=C(N=C1N)[C@H](CC(=O)N)NC[C@@H](C(=O)N)N)C(=O)N[C@@H]([C@H](C2=CN=CN2)OC3C(C(C(C(O3)CO)O)O)OC4C(C(C(C(O4)CO)O)OC(=O)N)O)C(=O)N[C@H](C)[C@H]([C@H](C)C(=O)N[C@@H]([C@@H](C)O)C(=O)NCCC5=NC(=CS5)C6=NC(=CS6)C(=O)NCCC[S+](C)C)O [Bleomycin] + C[C@@H](Oc1cc(-c2cnn(C3CCNCC3)c2)cnc1N)c1c(Cl)ccc(F)c1Cl [Crizotinib] (partner 1 µM)
As to conditions: main component drawn. The essentials:
as §1

Consider HOP-62, for which the relative viability in assay [1] (first compound 0.01 µM) turned out to be 0.277; in assay [1] (first compound 0.03162 µM), 0.361; in assay [1] (first compound 0.1 µM), 0.303; in assay [1] (first compound 0.3162 µM), 0.141; in assay [1] (first compound 1 µM), 0.128; in assay [2] (first compound 0.01 µM) it was 0.66. In addition, the relative viability in assay [2] (first compound 0.03162 µM) amounted to 0.705; in assay [2] (first compound 0.1 µM), 0.462; in assay [2] (first compound 0.3162 µM), 0.254; in assay [2] (first compound 1 µM), 0.193; in assay [3] (first compound 0.01 µM) it was 0.802; in assay [3] (first compound 0.03162 µM), 0.882. The relative viability came to 0.521 in assay [3] (first compound 0.1 µM); 0.696 in assay [3] (first compound 0.3162 µM); 0.523 in assay [3] (first compound 1 µM); 0.531 in assay [4] (first compound 0.01 µM); 0.477 in assay [4] (first compound 0.03162 µM); 0.325 in assay [4] (first compound 0.1 µM). In addition, the relative viability was determined as 0.144 in assay [4] (first compound 0.3162 µM) and 0.106 in assay [4] (first compound 1 µM).

For the cell line NCI-H2228, the relative viability in assay [1] (first compound 0.01 µM) amounted to 0.317; in assay [1] (first compound 0.03162 µM) it was 0.291; in assay [1] (first compound 0.1 µM), 0.263; in assay [1] (first compound 0.3162 µM), 0.199; in assay [1] (first compound 1 µM), 0.185; in assay [2] (first compound 0.01 µM) it was 0.149. Further, the relative viability amounted to 0.129 in assay [2] (first compound 0.03162 µM); 0.186 in assay [2] (first compound 0.1 µM); 0.128 in assay [2] (first compound 0.3162 µM); 0.15 in assay [2] (first compound 1 µM); 0.499 in assay [3] (first compound 0.01 µM); 0.787 in assay [3] (first compound 0.03162 µM). The relative viability stood at 0.276 in assay [3] (first compound 0.1 µM); 0.481 in assay [3] (first compound 0.3162 µM); 0.164 in assay [3] (first compound 1 µM); 0.393 in assay [4] (first compound 0.01 µM); 0.362 in assay [4] (first compound 0.03162 µM); 0.488 in assay [4] (first compound 0.1 µM). Besides, the relative viability in assay [4] (first compound 0.3162 µM) is 0.318; in assay [4] (first compound 1 µM) it was 0.327.

With NCI-H358, the relative viability in assay [1] (first compound 0.01 µM) was 0.164; in assay [1] (first compound 0.03162 µM), 0.197; in assay [1] (first compound 0.1 µM), 0.168; in assay [1] (first compound 0.3162 µM), 0.183; in assay [1] (first compound 1 µM), 0.175; in assay [2] (first compound 0.01 µM), 0.307. For the same cell line, the relative viability in assay [2] (first compound 0.03162 µM) was 0.251; in assay [2] (first compound 0.1 µM) it was 0.27; in assay [2] (first compound 0.3162 µM), 0.23; in assay [2] (first compound 1 µM), 0.283; in assay [3] (first compound 0.01 µM), 0.711; in assay [3] (first compound 0.03162 µM) it was 0.757. Besides, the relative viability in assay [3] (first compound 0.1 µM) stood at 0.366; in assay [3] (first compound 0.3162 µM), 0.136; in assay [3] (first compound 1 µM), 0.0875; in assay [4] (first compound 0.01 µM) it was 0.484; in assay [4] (first compound 0.03162 µM), 0.486; in assay [4] (first compound 0.1 µM) it was 0.514. Also, the relative viability in assay [4] (first compound 0.3162 µM) was 0.29; in assay [4] (first compound 1 µM), 0.263.

As to EPLC-272H, the relative viability in assay [1] (first compound 0.01 µM) was determined as 0.294; in assay [1] (first compound 0.03162 µM), 0.198; in assay [1] (first compound 0.1 µM) it was 0.146; in assay [1] (first compound 0.3162 µM) it was 0.121; in assay [1] (first compound 1 µM) it was 0.131; in assay [2] (first compound 0.01 µM), 0.361. Besides, the relative viability in assay [2] (first compound 0.03162 µM) worked out at 0.23; in assay [2] (first compound 0.1 µM) it was 0.203; in assay [2] (first compound 0.3162 µM), 0.145; in assay [2] (first compound 1 µM), 0.133; in assay [3] (first compound 0.01 µM) it was 0.287; in assay [3] (first compound 0.03162 µM), 0.293. Also, the relative viability in assay [3] (first compound 0.1 µM) is 0.209; in assay [3] (first compound 0.3162 µM), 0.326; in assay [3] (first compound 1 µM) it was 0.243; in assay [4] (first compound 0.01 µM), 0.776; in assay [4] (first compound 0.03162 µM), 0.88; in assay [4] (first compound 0.1 µM) it was 0.655. Moreover, the figures for the relative viability in assay [4] (first compound 0.3162 µM) and in assay [4] (first compound 1 µM) were 0.358 and 0.152, respectively.

As to RERF-LC-KJ, the relative viability amounted to 0.416 in assay [1] (first compound 0.01 µM); 0.504 in assay [1] (first compound 0.03162 µM); 0.391 in assay [1] (first compound 0.1 µM); 0.261 in assay [1] (first compound 0.3162 µM); 0.142 in assay [1] (first compound 1 µM); 0.555 in assay [2] (first compound 0.01 µM). For the same cell line, the relative viability in assay [2] (first compound 0.03162 µM) turned out to be 0.479; in assay [2] (first compound 0.1 µM), 0.461; in assay [2] (first compound 0.3162 µM), 0.307; in assay [2] (first compound 1 µM) it was 0.287; in assay [3] (first compound 0.01 µM), 0.529; in assay [3] (first compound 0.03162 µM), 0.615. For the same cell line, the relative viability turned out to be 0.382 in assay [3] (first compound 0.1 µM); 0.613 in assay [3] (first compound 0.3162 µM); 0.429 in assay [3] (first compound 1 µM); 0.541 in assay [4] (first compound 0.01 µM); 0.513 in assay [4] (first compound 0.03162 µM); 0.421 in assay [4] (first compound 0.1 µM). The relative viability amounted to 0.23 in assay [4] (first compound 0.3162 µM) and 0.197 in assay [4] (first compound 1 µM).

As to NCI-H661, the relative viability in assay [1] (first compound 0.01 µM) is 0.886; in assay [1] (first compound 0.03162 µM) it was 0.821; in assay [1] (first compound 0.1 µM), 0.688; in assay [1] (first compound 0.3162 µM), 0.412; in assay [1] (first compound 1 µM), 0.366; in assay [2] (first compound 0.01 µM), 0.78. Further, the relative viability in assay [2] (first compound 0.03162 µM) came to 0.807; in assay [2] (first compound 0.1 µM), 0.564; in assay [2] (first compound 0.3162 µM), 0.299; in assay [2] (first compound 1 µM) it was 0.284; in assay [3] (first compound 0.01 µM), 0.702; in assay [3] (first compound 0.03162 µM), 0.712. The relative viability in assay [3] (first compound 0.1 µM) is 0.619; in assay [3] (first compound 0.3162 µM), 0.494; in assay [3] (first compound 1 µM), 0.267; in assay [4] (first compound 0.01 µM), 0.82; in assay [4] (first compound 0.03162 µM), 0.943; in assay [4] (first compound 0.1 µM) it was 0.745. Moreover, the relative viability in assay [4] (first compound 0.3162 µM) was found to be 0.508; in assay [4] (first compound 1 µM), 0.425.

Turning to PC-14, the relative viability in assay [1] (first compound 0.01 µM) amounted to 0.113; in assay [1] (first compound 0.03162 µM), 0.118; in assay [1] (first compound 0.1 µM), 0.103; in assay [1] (first compound 0.3162 µM), 0.0537; in assay [1] (first compound 1 µM), 0.0242; in assay [2] (first compound 0.01 µM) it was 0.148. Besides, the relative viability in assay [2] (first compound 0.03162 µM) came out at 0.144; in assay [2] (first compound 0.1 µM), 0.121; in assay [2] (first compound 0.3162 µM), 0.116; in assay [2] (first compound 1 µM), 0.124; in assay [3] (first compound 0.01 µM), 0.815; in assay [3] (first compound 0.03162 µM), 0.945. Also, the relative viability came out at 0.58 in assay [3] (first compound 0.1 µM); 0.587 in assay [3] (first compound 0.3162 µM); 0.275 in assay [3] (first compound 1 µM); 0.578 in assay [4] (first compound 0.01 µM); 0.516 in assay [4] (first compound 0.03162 µM); 0.259 in assay [4] (first compound 0.1 µM). Besides, the relative viability in assay [4] (first compound 0.3162 µM) is 0.105; in assay [4] (first compound 1 µM), 0.0849.
